In PMC3514216, “SRC Homology 2 Domain Binding Sites in Insulin, IGF-1 and FGF receptor mediated signaling networks reveal an extensive potential interactome” (Cell Communication and Signaling : CCS, 2012):

How the values were obtained:
Format in all cases: binding
panel of 50 SH2 domains = assay: SPOT peptide array probed with each of 50 GST-SH2 domains; details: for Other SH2 domains bound (additional array-positive SH2 domains): SH2 domains with intensity >3X array mean, GST-SH2 0.25 μM, 1 mM DTT; for SH2 Domains >3X / 2X < SH2 Domains < 3X: SPOT192 peptide array; for SH2 Domains >3X: list of GST-SH2 domains with spot intensity >3X array mean (array-positive); for 2X < SH2 Domains < 3X: list of GST-SH2 domains with spot intensity between 2X and 3X array mean (indeterminate range)
Summary of the method: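 Membrane SPOT arrays of 192 phosphotyrosine 11-mer peptides (four residues N-terminal, six C-terminal to pTyr) probed with GST-SH2 fusions, detected by anti-GST plus near-infrared secondary antibody. Spots >3-fold array mean scored positive, below mean negative, 1–3× indeterminate; peptides binding GST alone above mean in two of three trials flagged as sticky.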

Grb2 SH2 domain = Grb2 SH2 domain (Homo sapiens, UniProt P62993); assay: SPOT peptide array; details: GST-SH2 0.25 μM, membrane-bound peptide, 1 mM DTT, LiCor read-out
Grb2 SH2 domain, sequence (P62993 60-152 limits assumed): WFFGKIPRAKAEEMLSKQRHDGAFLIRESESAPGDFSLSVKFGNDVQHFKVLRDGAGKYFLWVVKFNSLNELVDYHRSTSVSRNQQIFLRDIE
Source text: (§1) The use of addressable peptide arrays is a reproducible and semi-quantitative approach that has been extensively validated for studying protein interactions with peptide ligands. To investigate connections between SH2 domain proteins and their putative phosphorylated docking sites on cell surface receptors, we developed addressable arrays consisting of 192 phosphotyrosine peptides. This peptide set was assembled using 71 phosphotyrosine peptide motifs corresponding to all of the cytoplasmic tyrosine residues within the FGF receptors (FGFR1-4), insulin receptor (InsR) and IGF-1 receptor (IGF-1R) (Figure 1A). Activation of these receptors results in the phosphorylation of associated scaffold proteins, and so 75 phosphotyrosine peptides corresponding to a comprehensive list of tyrosine residues within insulin receptor substrates (IRS-1 and IRS-2) and fibroblast receptor substrates (FRS-2 and FRS-3) were included. In addition, 33 phosphotyrosine peptides were incorporated from the downstream signaling proteins PLC-γ1, p130Cas (BCAR1) and p62DOK1. […] These control peptides provide a reference and establish the empirical cut-off for designated binding interactions (Table 1). No discrimination was made against peptides on the basis of reported phosphorylation state in order to examine a diverse and unbiased set of motifs. The resulting set of 192 phosphotyrosine peptides and their corresponding position in the proteins of origin is noted in Additional file 1: Table S1. Addressable arrays were synthesized as membrane-bound 11-mer peptides using the SPOT synthesis technique. While the majority of SH2 domains recognize residues C-terminal to the phosphotyrosine in their cognate peptide ligands, additional contacts between SH2 domains and residues N-terminal to the phosphotyrosine are observed for the SH2 domain of Sh2d1a (SAP) and cannot be ruled out in other cases. Peptides were synthesized with six flanking residues C-terminal to the phosphotyrosine and four residues N-terminal to the phosphotyrosine.
(§2) SH2 domains were arrayed as GST fusion proteins and detected using anti-GST primary antibodies and near-infrared labeled secondary antibodies. In an effort to present a dataset with minimal false positives, we chose an empirical cutoff based on the array average across all peptide spots to classify interactions (Figure 1A). In cases where the intensity of the signal for an individual SH2-domain binding event exceeded the mean intensity of all the peptides on the membrane by three-fold were scored as “array positives” [22]. Non-binding was judged in cases where the intensity of a spot was less than the mean intensity of all spots on the membrane and these were scored as “array negatives”. Peptides with signal intensities between 1X and 3X mean were scored as “indeterminate” and ascribed as neither array positive binding interactions nor array-negative non-binders. […] This signature may be indicative of promiscuity differences between phosphopeptides or there may be a subset of peptides which interact in a nonspecific fashion with either the GST fusion tag or one of the antibodies used for detection, resulting in false positives. Consistent with our goal of reducing the errors associated with identifying false-positives, we probed three separate arrays with three separate preps of the GST fusion tag alone. Potentially non-specificly interacting peptides (so-called ‘sticky’ peptides) were identified as any that bound to GST with above mean intensity in two out of three separate trials. This approach identifies any peptides which interact with GST or either of the recognition antibodies, a known confounding factor for downstream analysis. This conservative approach allows us to score many significant peptides as ‘binders’ which may have been indeterminate before when incorporating the ‘sticky’ peptides into the array average. […]

Ptpn11_N SH2 domain = molecular target: T1, Ptpn11_N SH2 domain (Homo sapiens, UniProt Q06124); assay: SPOT peptide array; details: GST-SH2 0.25 μM; for Array positive: membrane-bound peptide, 1 mM DTT, LiCor read-out; for Peptide array intensity (X mean): spot intensity as factor of array mean
T1 sequence (Q06124 6-102 limits assumed): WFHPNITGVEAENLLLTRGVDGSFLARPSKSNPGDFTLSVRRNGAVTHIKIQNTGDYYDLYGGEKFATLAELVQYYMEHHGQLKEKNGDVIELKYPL
Source text: as §1, §2

| Substance | SH2 Domains >3X (panel of 50 SH2 domains) | 2X < SH2 Domains < 3X (panel of 50 SH2 domains) | other results |
| --- | --- | --- | --- |
| ALLNpYENLPSL [11-mer phosphotyrosine peptide, FRS2 (Y349)] |  |  | Other SH2 domains bound (additional array-positive SH2 domains) (panel of 50 SH2 domains): Abl1, Abl2, Gads, Grap, Grb2, Grb7, PI3K1_C, Sh2d2a, Sh3bp2; Array positive (Grb2 SH2 domain): Yes (Array-positive binding was ascribed to interactions with intensities greater than three times the array mean) |
| APVSpYADMRTG [11-mer phosphotyrosine peptide, IRS-1 (Y1012)] |  |  | Array positive (Ptpn11_N SH2 domain): No (Peptide spots with average intensity values between 1X-3X the array mean were defined as ‘indeterminate’. Those with intensities below 1X mean were defined as array negative); Peptide array intensity (X mean) (Ptpn11_N SH2 domain): 0.59 X Mean |
| DDPSpYVNVQNL [11-mer phosphotyrosine control peptide, ShcA (Y426), reference compound] |  |  | Other SH2 domains bound (additional array-positive SH2 domains) (panel of 50 SH2 domains): Gads, Grap; Array positive (Grb2 SH2 domain): Yes (Array-positive binding was ascribed to interactions with intensities greater than three times the array mean) |
| DPNGpYMMMSPS [11-mer phosphotyrosine peptide, IRS-1 (Y662)] |  |  | Array positive (Ptpn11_N SH2 domain): No (Peptide spots with average intensity values between 1X-3X the array mean were defined as ‘indeterminate’. Those with intensities below 1X mean were defined as array negative); Peptide array intensity (X mean) (Ptpn11_N SH2 domain): 0.54 X Mean |
| ELSNpYICMGGK [11-mer phosphotyrosine peptide, IRS-1 (Y465)] |  |  | Array positive (Ptpn11_N SH2 domain): No (Peptide spots with average intensity values between 1X-3X the array mean were defined as ‘indeterminate’. Those with intensities below 1X mean were defined as array negative); Peptide array intensity (X mean) (Ptpn11_N SH2 domain): 0.9 X Mean |
| RQLNpYIQVDLE [11-mer phosphotyrosine peptide, FRS2 (Y436)] |  |  | Other SH2 domains bound (additional array-positive SH2 domains) (panel of 50 SH2 domains): Itk, Mist, PLCγ_C, Rasa1_N, Shb, Shd, She, Syk_C; Array positive (Ptpn11_N SH2 domain): Yes (Array-positive binding was ascribed to interactions with intensities greater than three times the array mean) |
| SIEEpYTEMMPA [11-mer phosphotyrosine peptide, IRS-1 (Y551)] |  |  | Array positive (Ptpn11_N SH2 domain): No (Peptide spots with average intensity values between 1X-3X the array mean were defined as ‘indeterminate’. Those with intensities below 1X mean were defined as array negative); Peptide array intensity (X mean) (Ptpn11_N SH2 domain): 0.56 X Mean |
| SSDSpYAVIDLK [G15] | SH2D1B, SHC1, SHIP1 | HCK |  |
| STDEpYLDLSAP [F11] | LCK |  |  |
| STVEpYSTVVHS [A11] | BRDG1, BRK, CRK, PTPN11_N, PTPN11_C, SH2D1B, SHC1, SHIP1 | ABL2, RIN1 |  |
| SVIVpYKMKSGT [E04] | BCAR3, BMX, BRDG1, TENC1 | BRK, FER, MIST, PTPN11_C, SHF, SHD, SYK_C |  |
| TDDGpYMPMSPG [C06] | HCK, PI3K1_C, SRC | FYN |  |
| TEPTpYFYVTDY [A14] | BRK, ITK, RASA1_N | MATK, PLCG2_N, SH2D1B, SYK_C |  |
| TFGPpYSPSGGD [F19] |  | ZAP70_N |  |
| THDLpYMIMREC [F10] |  | PI3K1_C |  |
| TKDEpYFAVAAE [D04] |  | SH2D1B |  |
| TNEEpYLDLSQP [F02] |  | BLK, FYN, SH2D1B, SRC, ZAP70_N |  |
| TNELpYMMMRDS [E17] |  | PI3K1_C |  |
| TRDIpYETDpYpYR [A13] | ABL2, BCAR3, CRK, CRKL, DAPP1, GRB7, PI3K1_C, PLCG2_C | FGR, HCK, RASA1_N, SH2D1B, SRC, FGR, GRB7, LCK, LYN, MIST, RIN1 |  |
| VFTTpYSDVWSF [B13] | ABL1, ABL2, BRK, ITK, RASA1_N, RASA1_C, RIN1, SH2D1B, SH2D2A, SHC1 | BCAR3, CRK, NCK1, PI3K1_N, SHIP1 |  |
| VIMLpYVFHRKR [B11] | BCAR3, BMX, BRDG1, BRK, DAPP1, FER, MATK, MIST, PI3K1_N, PLCG2_N, PTPN11_N, PTPN11_C, RASA1_C, RIN1, SHB, SHF, SHD, SHE, TENC1 | GRB2, PI3K1_C, PLCG2_C, SH3BP2, SYK_C |  |

| Substance | SH2 Domains >3X (panel of 50 SH2 domains) | 2X < SH2 Domains < 3X (panel of 50 SH2 domains) | other results |
| --- | --- | --- | --- |
| VIVEpYASKGNL [E07] |  | BCAR3 |  |
| VKWHpYLALRRY [F21] | BCAR3, BMX, BRDG1, BRK, DAPP1, FER, GRB2, MATK, MIST, PI3K1_N, PI3K1_C, PLCG2_N, PLCG2_C, PTPN11_N, PTPN11_C, RIN1, Sh2b, SH3BP2, SHB, SHF, SHD, TENC1 | FGR, ITK, RASA1_C, SH2D2A, SHE, SYK_C |  |
| VLSYpYSLPRSF [C13] | CRK, CRKL, Sh2b, SH2D2A, SHF, SYK_C | BRDG1, PLCG2_C, PTPN11_C, SHB |  |
| VLVEpYAAKGNL [F08] |  | MIST, ZAP70_N |  |
| VNPEpYFSAADV [B12] |  | Sh2b |  |
| VSCApYQVARGM [E11] | BRDG1 | CRK, ITK, MIST, PLCG2_N, SHB, SHF |  |
| VSCApYQVARGM [F14] | BRDG1 | CRK, ITK, MIST, PLCG2_N, PLCG2_C, SHF, SYK_C |  |
| VSCTpYQLARGM [E23] | BRDG1, MIST, PLCG2_N, SHF | ITK, PLCG2_C, SHB |  |
| VSEEpYLDLRLT [F18] | BMX, RASA1_N, SHB, SHD |  |  |
| VSFYpYSEENKP [B16] | ABL1, BCAR3 | ABL2, MATK |  |
| WDTGpYDSDERR [G03] | SH3BP2, SRC | DAPP1, FER, HCK, ZAP70_N |  |
| WMEDpYDYVHLQ [H12] | BCAR3, BMX, BRK, CRK, CRKL, DAPP1, FER, GRB7, ITK, MATK, NCK1, PI3K1_N, PLCG2_N, RASA1_N, RASA1_C, RIN1, SH3BP2, TENC1 | ABL1, BLK, FYN, HCK, LCK, LYN, PLCG2_C, SH2D1B, SHB, SHC1, SHIP1, SRC |  |
| WRGDpYGGKKQL [H04] | BCAR3, BRDG1, BRK, DAPP1, FER, MIST, RIN1, TENC1 | BMX, ITK, PLCG2_N, Sh2b, SH3BP2, SHF, SHD, SYK_C |  |
| WYPHpYFVLTSS [G24] | ABL2, CRK, CRKL, ITK, MATK, MIST, PI3K1_C, PTPN11_C, SH2D1B, SHD, SHIP1, ZAP70_N | BCAR3, GRB7, SHC1 |  |
| YELPpYNPATDD [H22] | SLNK |  |  |
| YETDpYYRKGGK [B01] | BCAR3, BMX, BRDG1, BRK, ITK, PLCG2_N, RIN1, TENC1 | FER, MIST, PTPN11_C, SH2D2A, SHB, SHF, SHD, SHE, SYK_C |  |
| YGALpYEGRNPG [H02] |  | SH3BP2, ZAP70_N |  |
| YKAPpYTAGGDS [D22] | MIST |  |  |
| YPEDpYGDIEIG [D17] | BMX, BRK, FGR, SLNK, SRC | BLK, FER, FYN, HCK, GRB7, ITK, LCK, LYN, RASA1_N, SH2D1B, SHC1, YES |  |
| YVTDpYLDVPSN [A16] | SLNK | BRK, RASA1_N |  |
| YWDLpYEHAQQQ [H18] | ABL1, BCAR3, BMX, FER, ITK, MATK, RASA1_N, RASA1_C, SH3BP2, SHB, TENC1 | CRKL |  |
